Measured values reported in the NIST ThermoML archive (doi:10.1016/j.jct.2016.05.001).

Assay: molar heat capacity at constant pressure
Conditions: 101.33 kPa, Crystal, Small (less than 1 g) adiabatic calorimetry

Nc1nc2ncc(CNc3ccc(C(=O)N[C@@H](CCC(=O)O)C(=O)O)cc3)nc2c(=O)[nH]1.O.O [folic acid dihydrate]
Conditions	molar heat capacity at constant pressure [J/K/mol]
4 K	0.102
5 K	0.2491
6 K	0.5453
6.19 K	0.593
6.38 K	0.655
6.61 K	0.721
6.75 K	0.802
6.92 K	0.887
7 K	0.912
7.08 K	0.945
7.25 K	1.04
7.41 K	1.13
7.57 K	1.252
7.74 K	1.385
7.91 K	1.525
8 K	1.566
8.09 K	1.638
8.26 K	1.768
8.44 K	1.945
8.62 K	2.088
8.81 K	2.306
8.99 K	2.516
9 K	2.515
9.18 K	2.748
9.37 K	2.964
9.57 K	3.161
9.76 K	3.423
9.96 K	3.738
10 K	3.778
10.25 K	4.166
10.62 K	4.708
10.99 K	5.254
11.38 K	5.862
11.76 K	6.483
12.15 K	7.179
12.54 K	7.815
12.94 K	8.333
13.34 K	8.928
13.74 K	9.587
14.14 K	10.14
14.55 K	10.74
14.95 K	11.46
15 K	11.59
15.36 K	12.2
15.77 K	12.88
16.17 K	13.8
16.58 K	14.68
16.99 K	15.55
17.41 K	16.41
17.82 K	17.5
18.23 K	18.49
18.65 K	19.48
19.07 K	20.54
19.48 K	21.69
19.9 K	23.01
20 K	23.04
20.65 K	24.46
21.68 K	27.43
22.72 K	30.51
23.77 K	33.53
24.84 K	36.78
25 K	37.08
25.91 K	40.14
26.99 K	43.46
28.09 K	47.02
29.19 K	50.59
30 K	53.06
30.31 K	54.03
31.67 K	58.43
32.99 K	62.72
34.13 K	66.37
35 K	68.97
35.27 K	70.06
36.42 K	73.12
37.58 K	77.03
38.73 K	80.18
39.9 K	83.86
40 K	84.24
41.07 K	87.28
42.25 K	90.77
43.42 K	94.06
44.6 K	97.24
45 K	98.58
45.79 K	100.6
46.98 K	104.2
48.17 K	107.5
49.36 K	110.7
50 K	112.2
50.59 K	113.9
51.85 K	117.3
53.22 K	120.9
54.67 K	124.8
55.88 K	127.9
57.09 K	131
58.3 K	134.2
59.51 K	137.3
60 K	138.8
60.73 K	140.4
61.94 K	143.5
63.16 K	146.9
64.38 K	150.7
65.6 K	153.5
66.82 K	156.6
68.05 K	160.1
69.27 K	162.8
70 K	164.4
70.5 K	165.1
71.99 K	169.2
74 K	173.6
76.06 K	178.7
78.43 K	183
80 K	186.3
80.89 K	187.7
82.9 K	192.1
84.91 K	195.6
86.92 K	199
88.92 K	202.8
90 K	204.7
90.93 K	206.4
92.93 K	210.3
94.93 K	214
96.93 K	217.8
98.92 K	222.6
100 K	224.7
100.92 K	227
103.4 K	232.2
106.39 K	237.8
109.39 K	242.7
110 K	244.1
112.4 K	248.4
115.42 K	253.8
118.43 K	259.3
120 K	262
121.45 K	264.5
124.48 K	269.8
127.5 K	275.4
130 K	280.1
130.53 K	281.3
133.57 K	286.9
136.6 K	292.2
139.64 K	297.9
140 K	298.3
142.68 K	303.3
145.73 K	308.5
148.77 K	314.4
150 K	316.4
151.82 K	319.5
154.87 K	325
157.92 K	330.4
160 K	334.1
160.98 K	335.8
164.06 K	341.4
167.12 K	346.3
170 K	351.6
170.18 K	351.6
173.24 K	357.2
176.3 K	362.7
179.37 K	368.2
180 K	369
182.43 K	373.5
185.5 K	378.4
188.56 K	383.4
190 K	386.3
191.63 K	389.3
194.69 K	394.9
197.76 K	400.1
200 K	403.7
200.82 K	404.6
203.89 K	410.4
207.45 K	417
210 K	421.1
211.53 K	423.5
215.66 K	431.6
219.74 K	437.6
220 K	438.6
223.82 K	445.1
227.89 K	452.3
230 K	456.1
231.96 K	459.5
236.04 K	466.9
240 K	473.7
240.12 K	474.5
244.2 K	481.2
248.27 K	487.4
250 K	491.2
252.34 K	495.1
256.41 K	502.6
260 K	508.6
260.47 K	509.7
264.53 K	516.2
268.59 K	523.3
270 K	525.9
272.64 K	530.3
273.15 K	531.3
276.68 K	537.3
280 K	543.1
280.75 K	545.1
284.78 K	550.6
288.79 K	558.6
290 K	560.3
292.8 K	565.2
296.8 K	571.5
298.15 K	574.4
300 K	577.6
300.78 K	578.9
306.79 K	590
310 K	595.2
312.24 K	599.4
320 K	613.1
320.03 K	612.7
326.53 K	625.5
330 K	631.7
332.98 K	637.3
333 K	637.5
